The record followed here is US5834453A, “Methods for the manufacture and use of antimicrobial sterol conjugates” (Lehigh University, priority 1997, dated 1998).

Molecules are shown by their SMILES. ≈ marks a conversion by molar mass, not a printed value.

In data set [1] the test system is various groups of microorganisms. Description: Antimicrobial activity (MIC), all microorganisms tested. It is filed as cell-based. The settings on record: 24 h, read-out: MICs against the various groups of microorganisms tested. The method, then:
(§1) The antimicrobial activity of the compounds according to the present invention were compared with the results obtained for squalamine as reported in Proc. Nat. Acad. Sci. USA 90:1354 (1993), supra, the disclosure of which is incorporated in toto herein. The data reported in the following table is the minimum inhibitory concentration (MIC) required for complete inhibition of microbial growth. The MIC was determined utilizing known micro-broth dilution methods in which inocula of 10^6 /ml of the test organism were incubated in 0.5× trypticase soy broth at 35° C. for 24 hours. MIC's were also tested under various pH conditions, with calcium chloride or magnesium chloride, or with immobilized horse serum.
(§2) The numbers in parentheses contained in the table correspond to accession numbers with the American Type Culture Collection (reference strains were either obtained from the American Type Culture Collection or from the Microbiology Laboratory at Memorial Sloan-Kettering Cancer Center; Bacterial strains were maintained on Columbia 5% sheep blood agar plates, and fungi were maintained on Sabouraud Dextrose agar plates).

A short description of data set [2]: Hemolytic activity, minimal hemolytic concentration (MHC).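 Further: MCC here is the minimal hemolytic concentration (MHC).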 It counts as cell-based, sheep. The conditions noted are these: sheep, red blood cells. On the procedure:
Hemolytic activity of the squalamine mimics according to the present invention were also studied by incubating sheep red blood cells for 24 hours at 37° C. in saline (final concentration of 0.5%) with or without respective concentrations of the squalamine mimics. The minimal hemolytic concentration (MHC) was determined as the lowest concentration of a mimic that raised visible hemolysis.

The next data set relates to E. cloacae (13047). As to the kind of experiment: MIC, micro-broth dilution. It is filed as cell-based. The settings on record: Enterobacter cloacae, 35° C., 24 hours, read-out: ANTIMICROBIAL ACTIVITY (MIC). The method, then: as §1, §2
In another data set the test system is S. pneumoniae (6305). As to the kind of experiment: MIC, micro-broth dilution. The settings on record: Streptococcus pneumoniae, 35° C., 24 hours, read-out: ANTIMICROBIAL ACTIVITY (MIC). It counts as cell-based. On the procedure:
as §1, §2

In a further data set the test system is C. neoformans (90012). Description: MIC, micro-broth dilution. It is filed as cell-based. The conditions noted are these: Cryptococcus neoformans, 24 h, read-out: ANTIMICROBIAL ACTIVITY (MIC). The method, then: as §1, §2
In general terms: In broth dilution the organism is exposed to a series of concentrations in liquid medium.

A further data set concerns S. aureus (H20809). As to the kind of experiment: MIC, micro-broth dilution. It counts as cell-based. The settings on record: Staphylococcus aureus, 24 h, read-out: ANTIMICROBIAL ACTIVITY (MIC). On the procedure:
as §1, §2

In another data set the test system is P. aeruginosa (10145). Description: MIC, micro-broth dilution. It counts as cell-based. The conditions noted are these: Pseudomonas aeruginosa, 35° C., 24 hours, read-out: ANTIMICROBIAL ACTIVITY (MIC). The method, then: as §1, §2
Another data set concerns S. pyrogenes (19615). Description: MIC, micro-broth dilution. It is filed as cell-based. The settings on record: 24 h, read-out: ANTIMICROBIAL ACTIVITY (MIC). On the procedure: as §1, §2
Another data set has as its system S. agalactiae (13813). As to the kind of experiment: MIC, micro-broth dilution. It counts as cell-based. The settings on record: Streptococcus agalactiae, 35° C., 24 hours, read-out: ANTIMICROBIAL ACTIVITY (MIC). The method, then:
as §1, §2

The subject of a further data set is S. aureus (29213). As to the kind of experiment: MIC, micro-broth dilution. It is filed as cell-based. The conditions noted are these: Staphylococcus aureus, 24 h, read-out: ANTIMICROBIAL ACTIVITY (MIC). The method, then:
as §1, §2

The next data set concerns A. fumigatus (H1120). As to the kind of experiment: MIC, micro-broth dilution. It is filed as cell-based. The conditions noted are these: Aspergillus fumigatus, 35° C., 24 hours, read-out: ANTIMICROBIAL ACTIVITY (MIC). On the procedure:
as §1, §2

The next data set concerns K. pneumoniae (13883). Description: MIC, micro-broth dilution. It is filed as cell-based. The settings on record: Klebsiella pneumoniae, 24 h, read-out: ANTIMICROBIAL ACTIVITY (MIC). On the procedure: as §1, §2
The test system of a further data set is E. faecium (T6480-9). As to the kind of experiment: MIC, micro-broth dilution. It is filed as cell-based. The conditions noted are these: Enterococcus faecium, 35° C., 24 hours, read-out: ANTIMICROBIAL ACTIVITY (MIC). On the procedure:
as §1, §2

The next data set relates to S. epidermidis (12228). As to the kind of experiment: MIC, micro-broth dilution. It counts as cell-based. The conditions noted are these: Staphylococcus epidermidis, 35° C., 24 hours, read-out: ANTIMICROBIAL ACTIVITY (MIC). On the procedure: as §1, §2
A further data set concerns S. marcescens (13880). As to the kind of experiment: MIC, micro-broth dilution. It is filed as cell-based. The conditions noted are these: Serratia marcescens, 24 h, read-out: ANTIMICROBIAL ACTIVITY (MIC). The method, then:
as §1, §2

The next data set concerns S. aureus (25923). Description: MIC, micro-broth dilution. The conditions noted are these: Staphylococcus aureus, 35° C., 24 hours, read-out: ANTIMICROBIAL ACTIVITY (MIC). It is filed as cell-based. The method, then:
as §1, §2

A further data set has as its system C. albicans (90028). Description: MIC, micro-broth dilution. The conditions noted are these: Candida albicans, 35° C., 24 hours, read-out: ANTIMICROBIAL ACTIVITY (MIC). It counts as cell-based. The method, then:
as §1, §2

A further data set deals with A. fumigatus (H29709). As to the kind of experiment: MIC, micro-broth dilution. It counts as cell-based. The conditions noted are these: Aspergillus fumigatus, 35° C., 24 hours, read-out: ANTIMICROBIAL ACTIVITY (MIC). The method, then:
as §1, §2

For a further data set, the system named is C. neoformans (M68979). As to the kind of experiment: MIC, micro-broth dilution. The settings on record: Cryptococcus neoformans, 24 h, read-out: ANTIMICROBIAL ACTIVITY (MIC). It counts as cell-based. The method, then: as §1, §2
Another data set has as its system E. faecalis (29212). As to the kind of experiment: MIC, micro-broth dilution. It is filed as cell-based. The settings on record: Enterococcus faecalis, 35° C., 24 hours, read-out: ANTIMICROBIAL ACTIVITY (MIC). On the procedure:
as §1, §2

A further data set concerns P. vulgaris (13315). As to the kind of experiment: MIC, micro-broth dilution. It is filed as cell-based. The settings on record: Proteus vulgaris, 35° C., 24 hours, read-out: ANTIMICROBIAL ACTIVITY (MIC). The method, then:
as §1, §2

A further data set concerns E. coli (25922). Description: MIC, micro-broth dilution. It counts as cell-based. The settings on record: Escherichia coli, 35° C., 24 hours, read-out: ANTIMICROBIAL ACTIVITY (MIC). The method, then:
as §1, §2

The test system of another data set is P. aeruginosa (2853). Description: MIC, micro-broth dilution. The settings on record: Pseudomonas aeruginosa, 24 h, read-out: ANTIMICROBIAL ACTIVITY (MIC). It counts as cell-based. The method, then:
as §1, §2

Turning to `C[C@H](C(=O)NCCCCN)[C@H]1CC[C@H]2[C@@H]3CC=C4C[C@@H](O)CC[C@]4(C)[C@H]3CC[C@]12C` [SM-3], the MIC in data set [1] is over 100 µg/mL.
On the same count and under the same terms, the figure for `C[C@H](C(=O)NCCCCN)[C@H]1CC[C@H]2[C@@H]3CC=C4C[C@@H](OS(=O)(=O)O)CC[C@]4(C)[C@H]3CC[C@]12C` [SM-4] is over 100 µg/mL.
`C[C@H](CCC(=O)NCCNCCNCCN)[C@H]1CC[C@H]2[C@@H]3[C@H](O)C[C@@H]4C[C@H](O)CC[C@]4(C)[C@H]3C[C@H](O)[C@]12C` [SM-17] gave an MCC at 24 h in data set [2] of over 100 µg/mL. Further, the MIC in the data set with E. cloacae (13047) stood at 50 µg/mL (≈ 93.1 µM); in the data set on S. pneumoniae (6305), 25 µg/mL (≈ 46.6 µM); in the data set with C. neoformans (90012), 12.5 µg/mL (≈ 23.3 µM); with S. aureus (H20809), 50 µg/mL (≈ 93.1 µM); in the data set on P. aeruginosa (10145), 100 µg/mL (≈ 186 µM); in the data set with S. pyrogenes (19615), 12.5 µg/mL (≈ 23.3 µM). The MIC was 12.5 µg/mL (≈ 23.3 µM) in the data set with S. agalactiae (13813); 25 µg/mL (≈ 46.6 µM) with S. aureus (29213); 25 µg/mL (≈ 46.6 µM) with A. fumigatus (H1120); 50 µg/mL (≈ 93.1 µM) with K. pneumoniae (13883); 50 µg/mL (≈ 93.1 µM) in the data set on E. faecium (T6480-9); 25 µg/mL (≈ 46.6 µM) in the data set on S. epidermidis (12228). Besides, the MIC was over 100 µg/mL in the data set on S. marcescens (13880); 25 µg/mL (≈ 46.6 µM) in the data set on S. aureus (25923); 25 µg/mL (≈ 46.6 µM) with C. albicans (90028); 25 µg/mL (≈ 46.6 µM) with A. fumigatus (H29709); 12.5 µg/mL (≈ 23.3 µM) in the data set on C. neoformans (M68979); 50 µg/mL (≈ 93.1 µM) with E. faecalis (29212). For the same compound, the MIC with P. vulgaris (13315), in the data set with E. coli (25922) and in the data set with P. aeruginosa (2853) was 50 µg/mL (≈ 93.1 µM) in each case.
`C[C@H](CCC(=O)NCCNCCNCCN)[C@H]1CC[C@H]2[C@@H]3CC[C@@H]4CCCC[C@]4(C)[C@H]3CC[C@]12C` [SM-21] registered an MCC at 24 h in [2] of 3.13 µg/mL. In addition, the MIC in the data set with E. cloacae (13047) was over 100 µg/mL; with S. pneumoniae (6305), 1.56 µg/mL (≈ 3.19 µM); in the data set on C. neoformans (90012), 1.56 µg/mL (≈ 3.19 µM); in the data set on S. aureus (H20809) it was 3.13 µg/mL (≈ 6.4 µM); in the data set on P. aeruginosa (10145), 25 µg/mL (≈ 51.1 µM); with S. pyrogenes (19615), 3.13 µg/mL (≈ 6.4 µM). Besides, the MIC was 1.56 µg/mL (≈ 3.19 µM) with S. agalactiae (13813); 3.13 µg/mL (≈ 6.4 µM) in the data set on S. aureus (29213); 6.25 µg/mL (≈ 12.8 µM) in the data set on A. fumigatus (H1120); over 100 µg/mL in the data set with K. pneumoniae (13883); 1.56 µg/mL (≈ 3.19 µM) in the data set on E. faecium (T6480-9); 1.56 µg/mL (≈ 3.19 µM) in the data set on S. epidermidis (12228). Moreover, the MIC was over 100 µg/mL with S. marcescens (13880); 3.13 µg/mL (≈ 6.4 µM) in the data set on S. aureus (25923); 6.25 µg/mL (≈ 12.8 µM) with C. albicans (90028); 3.13 µg/mL (≈ 6.4 µM) in the data set with A. fumigatus (H29709); 1.56 µg/mL (≈ 3.19 µM) with C. neoformans (M68979); 3.13 µg/mL (≈ 6.4 µM) in the data set with E. faecalis (29212). For the same compound, the values for the MIC in the data set on P. vulgaris (13315), in the data set with E. coli (25922) and with P. aeruginosa (2853) were 50 µg/mL (≈ 102 µM), 50 µg/mL (≈ 102 µM) and 25 µg/mL (≈ 51.1 µM), respectively.
